# ChEMBL document CHEMBL1649502, “Characterization of cefoxitin-resistant Escherichia coli isolates from recreational beaches and private drinking water in Canada between 2004 and 2006” (2009)
# System: Escherichia coli
# Test: Antibacterial activity against cefoxitin-resistant Escherichia coli by microdilution method
# Assay type: functional
row,Compound,MIC [µg/mL]
1,CO[C@@]1(NC(=O)Cc2cccs2)C(=O)N2C(C(=O)O)=C(COC(N)=O)CS[C@@H]21 [CEFOXITIN],≥ 16
2,CO/N=C(\C(=O)N[C@@H]1C(=O)N2C(C(=O)O)=C(CSC(=O)c3ccco3)CS[C@H]12)c1csc(N)n1 [CEFTIOFUR],≥ 8
3,CN[C@@H]1[C@H](O[C@H]2[C@H](O[C@H]3[C@H](O)[C@@H](O)[C@H](N=C(N)N)[C@@H](O)[C@@H]3N=C(N)N)O[C@@H](C)[C@]2(O)C=O)O[C@@H](CO)[C@H](O)[C@H]1O [STREPTOMYCIN],≥ 64
